# Values of other authors, collected in patent US20230371513A1, “PHOTOSTABLE COMPOSITION AND METHOD OF REDUCING OR CONTROLLING WEED POPULATION APPLYING SAID COMPOSITION” (UPL DO BRASIL INDUSTRIA E COMERCIO DE INSUMOS AGROPECUARIOS …, priority 2020, published 2023).
# Conditions: buffer
structure (smiles),measurement,value
Cc1nn(-c2cc(NS(C)(=O)=O)c(Cl)cc2Cl)c(=O)n1C(F)F [sulfentrazone],"half-life, direct photolysis",1 to 12 h
